Source: publication PMC12362618, “Development of the First Small-Molecule Inhibitor Targeting Oncostatin M for Treatment of Breast Cancer” (Journal of Medicinal Chemistry, 2025)
Values joined by “and” are separate entries in the source; they are usually repeats but may differ in a detail not shown here. Equal values may be shown once. “Also recorded” adds a separate entry of the source.

Assays:
[1] = test system: OSM-induced pSTAT3 in T47D human breast cancer cells; test: pSTAT3 ELISA in T47D cells treated with OSM ± SMI; type: cell-based; conditions: T47D; SMI 10 μM + OSM 10 ng/mL, 30 min; ELISA; relative to +OSM, no-treatment blank subtracted
Procedure: To test the effect of SMIs in vitro, each SMI was incubated with OSM for a period of 1 h at 37 °C, and T47D and MDA-MB-231 human breast cancer cell lines were subsequently treated with OSM (10 ng/mL) and/or SMI-10 (10 μM) analogs for 30 min and measured for pSTAT3 levels via ELISA. The results of these assays are presented graphically in Figure and, for T47D cells, in Table as a percentage of reduction from +OSM alone. For phospho-STAT3 (pSTAT3) ELISAs, T47D MDA-MB-231, and MCF-7 cells were seeded in 12- or 24-well plates at 70–75% confluency and allowed to adhere overnight, after which cells were serum-starved with serum-free RPMI-1640 for 4 h. SMIs (10 μM in DMSO or serially diluted to specified concentrations from a 100 mM stock in DMSO) and human recombinant OSM (10 ng/mL; PeproTech; #300–10T-10UG) were incubated in serum-free RPMI-1640 medium for 1 h. After incubation, the SMI-10 analogs or SMI-10B13 and OSM were added to the serum-starved cells for 30 min. Immediately afterward, the cells were lysed using 1x PathScan Sandwich ELISA Lysis Buffer (Cell Signaling Technology; #7018S), collected, and stored at −20 °C. Lysates were analyzed for pSTAT3 levels using either the PathScan Phospho-STAT3 (Tyr705) Sandwich ELISA Antibody Pair kit (Cell Signaling Technology; #7146) or Human/Mouse Phospho-STAT3 (Y705) DuoSet IC ELISA (R&D Systems; DYC4607B), according to manufacture’s protocol. pSTAT3 expression was measured with absorbance at 450 nm and quantified by comparison relative to OSM-induced pSTAT3 levels. To calculate an IC50 for SMI-10B13, a standard curve was generated as described in the DuoSet IC ELISA datasheet to determine the concentration of pSTAT3.

OSM = molecular target: T1, OSM (Homo sapiens, UniProt P13725); test: Fluorescence quenching assay of SMI binding to OSM; conditions: average of three independent replicates, errors at 95% confidence level, read-out: KD (OSM-SMI dissociation constant)
T1 sequence (P13725 26-252): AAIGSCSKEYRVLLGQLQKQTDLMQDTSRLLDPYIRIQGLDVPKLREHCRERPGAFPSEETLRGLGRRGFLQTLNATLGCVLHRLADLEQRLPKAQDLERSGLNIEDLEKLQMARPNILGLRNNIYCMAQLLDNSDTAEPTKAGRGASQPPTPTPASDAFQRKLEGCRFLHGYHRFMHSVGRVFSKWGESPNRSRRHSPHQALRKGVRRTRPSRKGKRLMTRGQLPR
Procedure: To perform fluorescence quenching assays, 2 mL of 1 μM OSM solution in polymethylmethacrylate cuvettes was prepared by dilution of a concentrated stock solution of recombinant OSM with buffer solution (100 mM sodium chloride, 50 mM sodium phosphate, 50 mM freshly added DTT, pH = 6.6). Cuvettes were titrated with 5 μL increments of a 1 mM small molecule stock solution in DMSO, with a cuvette titrated with an equivalent volume of DMSO as a control. […] In cases where little to no significant quenching was observed, the titration was supplemented with 2.5 μL increments of a 10 mM small molecule stock solution to increase the concentration delivered. The fluorescence intensity measurements were obtained on a Cary Eclipse spectrofluorometer equipped with a Xenon arc lamp. Fluorescence intensities were measured by exciting at 280 nm (4 nm slit width) and recording the emission from 345 to 355 nm with a photomultiplier tube voltage of 700 V, unless otherwise noted. Each titration point was normalized to OSM’s native fluorescence intensity, corrected by adding the decrease in fluorescence intensity caused by dilution with DMSO, and the average value of the three replicates for each point was plotted against concentration of small molecule delivered and fit to a modified Stern–Volmer function as described by Charlier and Plapp. Binding affinity (K D) values were obtained […] from the fitting routine. All curve-fitting analysis was performed in GraphPad Prism 8.0.

[2] = test system: OSM-mediated signaling (pSTAT3, pAKT, pJNK, pERK) in T47D cells; test: Immunoblot of OSM-mediated signaling in T47D cells; type: cell-based, human; conditions: SMI 10 μM, OSM 10 ng/mL, 30 min
Procedure: For immunoblot analysis, T47D breast cancer cells were treated and collected in the same manner as described above for the ELISA preparation. After lysate collection, samples were run on a 10% SDS-PAGE gel and transferred to a nitrocellulose membrane via semidry transfer. Blots were rinsed with DI H2O and allowed to completely dry at room temperature before blocking with LiCor Intercept PBS Blocking Buffer (LiCor, Lincoln, NE; Cat# 927-90001) for 1 h. After blocking, primary antibodies (1:1000) suspended in blocking buffer supplemented with 0.1% Tween were added, shaken at room temperature for 1 h, and stored at 4 °C overnight. Membranes were then washed 6 times for 5 minutes each with 1X PBS supplemented with 0.5% Tween while shaking at room temperature, and secondary antibodies (1:15,000) were applied and incubated for 1 h. Afterward, membranes were washed as previously described above and imaged at 700 nm using the LiCor Odyssey CLx Imaging System. Quantification of immunoblots was performed using the LiCor Image Studio software, normalizing to β-Actin, and calculating relative fold change compared to nontreated samples. Antibodies used included phospho-STAT3 (Y705) (Cell Signaling Technology, Danvers, MA; cat. no. 9145), phospho-AKT (S473) (Cell Signaling Technology, Danvers, MA; cat. no. 4060), phospho-JNK ([…]/[…]) (Cell Signaling Technology, Danvers, MA; cat. no. 4668), phospho-ERK (T202/Y204) (Cell Signaling Technology, Danvers, MA; cat. no. 9101), β-Actin (Cell Signaling Technology; cat. no. 3700), and donkey antirabbit IRDye 800CW (LiCor, Lincoln, NE; Cat# 925-32213).

Row | Compound | Relative pSTAT3 Levels (Table 2, SMI-10B analogs) [1] [%] | Kd (OSM) | Inhibition of OSM-mediated signaling cascades by immunoblot (words) [2] | Relative pSTAT3 Levels (Table 1, SMI-10A-10J) [1] [%]
1 | COc1ccc(-c2cc(/C=C/C(=O)O)oc2-c2ccc(OC)c(OC)c2)cc1OC [SMI-10B1, (E)-3-(4,5-Bis(3,4-dimethoxyphenyl)furan-2-yl)acrylic Acid] | 62.35 | 18.4 ± 1.3 µM | – | –
2 | O=C(O)/C=C/c1cc(-c2ccc3c(c2)OCO3)c(-c2ccc3c(c2)OCO3)[nH]1 [SMI-10B5, (E)-3-(4,5-Bis(benzo[d][1,3]dioxol-5-yl)-1H-pyrrol-2-yl)acrylic Acid] | 19.89 | 9.2 ± 1.2 µM | – | –
3 | O=C(O)/C=C/c1cc(-c2ccc3c(c2)OCO3)co1 [SMI-10B12, (E)-3-(4-(Benzo[d][1,3]dioxol-5-yl)furan-2-yl)acrylic Acid] | 34.26 | 66.7 ± 5.8 µM | most effective; also recorded: better at inhibiting pSTAT3, pAKT, pJNK, and pERK signaling | –
4 | O=C(O)c1cc(-c2ccc3c(c2)OCO3)c(-c2ccc3c(c2)OCO3)o1 [SMI-10I, 4,5-Bis(benzo[d][1,3]dioxol-5-yl)furan-2-carboxylic Acid] | – | 46.2 ± 7.2 µM | – | 45.9
5 | O=C(O)/C=C/c1cc(-c2ccc3c(c2)OCO3)c(-c2ccccc2)o1 [SMI-10B9, (E)-3-(4-(Benzo[d][1,3]dioxol-5-yl)-5-phenylfuran-2-yl)acrylic Acid] | 30.98 | 18.2 ± 2 µM | – | –
6 | O=C(O)CCc1cc(-c2ccc3c(c2)OCO3)c(-c2ccc3c(c2)OCO3)o1 [SMI-10B14, 3-(4,5-Bis(benzo[d][1,3]dioxol-5-yl)furan-2-yl)propanoic Acid] | 79.65 | 9.1 ± 1.5 µM | most effective; also recorded: better at inhibiting pSTAT3, pAKT, pJNK, and pERK signaling | –
7 | O=C(O)CCc1cc(-c2ccc(F)c(F)c2)c(-c2ccc3c(c2)OCO3)o1 [SMI-10B15, 3-(5-(Benzo[d][1,3]dioxol-5-yl)-4-(3,4-difluorophenyl)furan-2-yl)propanoic Acid] | 75.05 | 8.9 ± 2 µM | – | –
8 | OCc1cc(-c2ccc3c(c2)OCO3)c(-c2ccc3c(c2)OCO3)o1 [SMI-10H, (4,5-Bis(benzo[d][1,3]dioxol-5-yl)furan-2-yl)methanol] | – | > 200 µM | – | 61.1
9 | O=C(O)/C=C/c1ccc(-c2ccc3c(c2)OCO3)o1 [SMI-10B11, (E)-3-(5-(Benzo[d][1,3]dioxol-5-yl)furan-2-yl)acrylic Acid] | 42.43 | 20.1 ± 1.5 µM | – | –
10 | O=C(O)/C=C/c1cc(-c2ccccc2)c(-c2ccccc2)o1 [SMI-10B10, (E)-3-(4,5-Diphenylfuran-2-yl)acrylic Acid] | 46.10 | 20.7 ± 1.9 µM | – | –
11 | O=C(O)/C=C/c1cc(-c2ccc3c(c2)OCO3)c(-c2ccc3c(c2)OCO3)s1 [SMI-10B4, (E)-3-(4,5-Bis(benzo[d][1,3]dioxol-5-yl)thiophen-2-yl)acrylic Acid] | 17.98 | 21.2 ± 1.8 µM | – | –
12 | COc1ccc(-c2cc(CCC(=O)O)oc2-c2ccc3c(c2)OCO3)cc1 [SMI-10B17, 3-(5-(Benzo[d][1,3]dioxol-5-yl)-4-(4-methoxyphenyl)furan-2-yl)propanoic acid] | 86.51 | 34.5 ± 6.9 µM | – | –
13 | COc1ccc(-c2cc(/C=C/C(=O)O)oc2-c2ccc(OC)c(O)c2)cc1O [SMI-10B2, (E)-3-(4,5-Bis(3-hydroxy-4-methoxyphenyl)furan-2-yl)acrylic Acid] | 56.66 | 17.5 ± 1.2 µM | – | –
14 | COc1cc(-c2cc(/C=C/C(=O)O)oc2-c2ccc(O)c(OC)c2)ccc1O [SMI-10B3, (E)-3-(4,5-Bis(4-hydroxy-3-methoxyphenyl)furan-2-yl)acrylic Acid] | 67.12 | 18.5 ± 1.7 µM | – | –
15 | O=C(O)CCc1cc(-c2cncnc2)c(-c2ccc3c(c2)OCO3)o1 [SMI-10B16, 3-(5-(Benzo[d][1,3]dioxol-5-yl)-4-(pyrimidin-5-yl)furan-2-yl)propanoic Acid] | 41.62 | 16.5 ± 5.2 µM | – | –
16 | O=C(O)/C=C/c1cc(-c2ccc3c(c2)OCCO3)c(-c2ccc3c(c2)OCCO3)o1 [SMI-10B7, (E)-3-(4,5-Bis(2,3-dihydrobenzo[b][1,4]dioxin-6-yl)furan-2-yl)acrylic Acid] | 73.96 | 6.6 µM and 6.64 µM | – | –
17 | O=C(NCc1ccccc1)c1cc(-c2ccc3c(c2)OCO3)c(-c2ccc3c(c2)OCO3)o1 [SMI-10J, 4,5-Bis(benzo[d][1,3]dioxol-5-yl)-N-benzylfuran-2-carboxamide] | – | 30.5 ± 2.1 µM | significant reductions, near nontreated levels | 8.6
18 | COC(=O)c1cc(-c2ccc3c(c2)OCO3)c(-c2ccc3c(c2)OCO3)o1 [SMI-10A, Methyl 4,5-Bis(benzo[d][1,3]dioxol-5-yl)furan-2-carboxylate] | – | 29.6 ± 5.6 µM | – | 84.7
19 | Cn1c(/C=C/C(=O)O)cc(-c2ccc3c(c2)OCO3)c1-c1ccc2c(c1)OCO2 [SMI-10B6, (E)-3-(4,5-Bis(benzo[d][1,3]dioxol-5-yl)-1-methyl-1H-pyrrol-2-yl)acrylic Acid] | 20.43 | 10 ± 1 µM | – | –
20 | O=C(O)CCc1cc(-c2ccc(Cl)c(Cl)c2)c(-c2ccc3c(c2)OCO3)o1 [SMI-10B18, 3-(5-(Benzo[d][1,3]dioxol-5-yl)-4-(3,4-dichlorophenyl)furan-2-yl)propanoic Acid] | 35.00 | 13.5 ± 2.5 µM | – | –
